Laboratory results reported in patent US20100021541A1, “Microparticulate form of a Tetrahydropyridine derivative” (SANOFI-AVENTIS, priority 1996, published 2010).

Experiments:
[1] = Clinical trials on healthy volunteers evaluating the effect of food on oral absorption; type: in vivo; conditions: for required dose relative to the product of Example 5 to obtain the same absorption: absorption = area under the curve of plasma SR 57746 concentrations; for absorption with a meal versus on an empty stomach: oral, area under the curve of plasma SR 57746 concentrations
Excerpt: The results obtained in vitro were confirmed in vivo by comparing the observations made in two clinical trials on healthy volunteers, the first trial evaluating the effect of food on the oral absorption of the SR 57746 A obtained according to EP 0 101 381, and the second trial evaluating the effect of food on the oral absorption of the SR 57746 A of Example 5 below. In both the trials, the criterion for evaluation of the absorption was the area under the curve of the plasma SR 57746 concentrations as a function of time.

[2] = test system: CACO-2 monolayer; experiment: CACO-2 monolayer model, in vitro absorption (dissolution and permeability); type: in vitro ADME; conditions: Hanks' solution supplemented with 10% of fetal calf serum and taurocholic acid
Method: A study concerning the determination of the in vitro absorption of the microparticles according to the present invention was carried out using the CACO-2 monolayer model.

[3] = Phase I clinical trials on healthy volunteers, oral administration; type: in vivo; conditions: administered orally
Excerpt: EP 0 101 381 describes SR 57746 in the form of the hydrochloride, hereafter called SR 57746 A, and this salt was used in preclinical and clinical trials on healthy volunteers (Phase I). According to said document, SR 57746 is isolated by crystallization from ethanol, especially absolute ethanol.

[4] = test system: amyotrophic lateral sclerosis; conditions: 2 mg/day; cited from earlier work
[5] = Preclinical trials: animal pharmacology, toxicology and pharmacokinetic studies; design: species or system animals; conditions: in vivo

## Cl.FC(F)(F)c1cccc(C2=CCN(CCc3ccc4ccccc4c3)CC2)c1 [1-[2-(2-naphthyl)ethyl]-4-(3-trifluoromethylphenyl)-1,2,3,6-tetrahydropyridine hydrochloride]
[1]; administered on an empty stomach
  required dose relative to the product of Example 5 to obtain the same absorption: about nine times greater
[1]; administered with a meal
  required dose relative to the product of Example 5 to obtain the same absorption: three to four times greater
[1]; hydrochloride
  absorption with a meal versus on an empty stomach: two to three times greater

## Cl.FC(F)(F)c1cccc(C2=CCN(CCc3ccc4ccccc4c3)CC2)c1 [Example 5]
[2]
  dissolution and permeability: rendered uniform
[1]
  absorption with a meal versus on an empty stomach: the absorption is the same

## Cl.FC(F)(F)c1cccc(C2=CCN(CCc3ccc4ccccc4c3)CC2)c1 [SR 57746 A, 1-[2-(2-naphthyl)ethyl]-4-(3-trifluoromethylphenyl)-1,2,3,6-tetrahydropyridine hydrochloride]
[3]
  variability in the plasma concentrations and the pharmacodynamic effects: high variability
[4]
  clinical outcome in amyotrophic lateral sclerosis: proved promising

## FC(F)(F)c1cccc(C2=CCN(CCc3ccc4ccccc4c3)CC2)c1 [SR 57746, 1-[2-(2-Naphthyl)ethyl]-4-(3-trifluoromethylphenyl)-1,2,3,6-tetrahydropyridine]
[5]
  activity and behavior in animal pharmacology and toxicology tests: constant activity and behavior
  pharmacokinetic studies on animals: constant and reproducible results
